Assays:
[1] = test system: Smad3-dependent collagen I promoter; assay: Luciferase reporter assay of Smad3-dependent collagen I promoter activity; format: cell-based, rat; conditions: NRK52E cells transfected with p(GAGA)12-luc, GQ-5 0.1, 0.5, 2.5 μM pre-treated 1 h, TGF-β1 10 ng/ml 24 h
ERK = assay: Western blot of TGF-β1-induced ERK phosphorylation in vitro; format: cell-based, rat; conditions: NRK52E and NRK49F cells, GQ-5 2.5 nM pre-treated 1 h, TGF-β1 10 ng/ml 1 h
Protocol: NRK52E and NRK49F cells were cultured in DMEM-Ham's medium (Gibco, Life Techologies, NY, USA) supplemented with 10% fetal bovine serum (Gibco, Life Techologies, NY, USA). The cells reached at approximately 50% confluence were used for in vitro experiments. Cells were serum-starved for 12 h, and randomized into 4 groups: (1) Controls; (2) GQ-5 only; (3) TGF-β1 only; (4) TGF-β1+GQ-5
(2) GQ-5 only: pre-treated with GQ-5 (2.5 μM) for 1 h, followed with DMEM for 1 h
(3) TGF-β1 only: pre-treated with DMSO (0.1%) for 1 h, followed with TGF-β1 (10 ng/ml) for 1 h
(4) TGF-β1+GQ-5: pre-treated with GQ-5 (2.5 nM) for 1 h, followed with TGF-β1 (10 ng/ml) for 1 h
GQ-5 was dissolved in DMSO. Cells were treated as described. cell lysates were immunoblotted with antibodies against Smad4, Smad7, phospho-p38, p38, phospho-PI3K, PI3K, phosphor-ERK, and ERK.

Smad7 = assay: Western blot of Smad7 expression in UUO kidneys; format: in vivo, rat; conditions: UUO rats, GQ-5 40 mg/kg daily i.p. right after UUO, sacrificed day 14
Protocol: Male Sprague-Dawley rats with body weight 200 to 250 g were randomized into 3 groups (n=6 in each group): (1) sham operated rats; (2) UUO rats; (3) UUO+GQ-5 rats.
(§1) GQ-5 was dissolved in 5% propylene glycol.
(3) UUO+GQ-5 rats: daily intraperitoneal injection of GQ-5 (40 mg/kg body weight) right after UUO;
UUO was performed using an established protocol as described. GQ-5 was dissolved in 5% propylene glycol. Rats were administrated with GQ-5 as described before. All the rats were sacrificed 14 days after UUO. Western blot analyses were performed to examine the Smad4, Smad7 expression and p38, PI3K, ERK phosphorylation.

fibronectin = assay: Real-time PCR of TGF-β1-induced fibronectin mRNA in vitro; format: cell-based, rat; conditions: NRK 52E and NRK 49F cells, GQ-5 0.1-2.5 μM pre-treated 1 h, TGF-β1 10 ng/ml 36 h
Protocol: NRK52E and NRK49F cells were cultured in DMEM-Ham's medium supplemented with 10% fetal bovine serum. The cells reached at approximately 50% confluence were used for in vitro experiments. Cells were serum-starved for 12 h, and randomized into 6 groups: (1) Controls; (2) GQ-5 only; (3) TGF-β1 only; (4) TGF-β1+GQ-5 0.1 μM; (5) TGF-β1+GQ-5 0.5 μM; (6) TGF-β1+GQ-5 2.5 μM
(2) GQ-5 only: pre-treated with GQ-5 (2.5 μM) for 1 h, followed with DMEM for 36 h
(3) TGF-β1 only: pre-treated with DMSO for 1 h, followed with TGF-β1 (10 ng/ml) for 36 h
(4) TGF-β1+GQ-5 0.1 μM: pre-treated with GQ-5 (0.1 μM) for 1 h, followed with TGF-β1 (10 ng/ml) for 36 h
(5) TGF-β1+GQ-5 0.5 μM: pre-treated with GQ-5 (0.5 μM) for 1 h, followed with TGF-β1 (10 ng/ml) for 36 h
(6) TGF-β1+GQ-5 2.5 μM: pre-treated with GQ-5 (2.5 μM) for 1 h, followed with TGF-β1 (10 ng/ml) for 36 h
GQ-5 was dissolved in DMSO. Cells were treated as described. Cells were collected for mRNA extraction. Real-rime PCR was performed to examine the mRNA expression of α-SMA, collagen I and fibronectin.

α-SMA = α-SMA expression in UUO kidney tissue (real-time PCR, immunohistochemistry, Western blot); format: in vivo, rat; conditions: UUO rats, GQ-5 40 mg/kg daily i.p., sacrificed day 14
Protocol: Male Sprague-Dawley rats were randomized into 4 groups (n=6 in each group): (1) sham operated rats; (2) UUO rats; (3) UUO+GQ-5 d1 rats; (4) UUO+GQ-5 d7 rats.
as §1
(3) UUO+GQ-5 d1 rats: daily intraperitoneal injection of GQ-5 (40 mg/kg body weight) right after UUO;
(4) UUO+GQ-5 d7 rats: daily intraperitoneal injection of GQ-5 (40 mg/kg body weight) 7 days after UUO.
UUO was performed using an established protocol as described. GQ-5 was dissolved in 5% propylene glycol. Rats were administrated with GQ-5 as described before. All the rats were sacrificed 14 days after UUO. HE staining, Masson trichrome staining were performed to examine the renal tissue injury, and Real-time PCR analyses, immunohistochemical staining, and Western blot analyses were performed to examine α-SMA, collagen I and fibronectin expression in kidney tissue

CCCCCC/C=C\CCCCCCCc1cccc(O)c1O [GQ-5, 3-[(Z)-pentadec-8-enyl]catechol]
TGF-β1-induced Smad3-dependent collagen I promoter activity [1]: significantly inhibited TGF-β1-induced Smad3-dependent collagen I promoter activity in a dose-dependent manner
TGF-β1-induced phosphorylation of ERK (ERK): did not affect
expression of Smad7 (Smad7): did not affect
TGF-β1-induced mRNA expression of fibronectin (fibronectin): significantly inhibited
up-regulation of α-SMA at both mRNA and protein level (α-SMA): significantly inhibited
